Experiment: GHS categories as the set defines them, by LD50: 1 up to 5, 2 up to 50, 3 up to 300, 4 up to 2000, 5 above 2000 mg/kg
Details: rat; in vivo; po

SMILES	GHS category
CC(C)COP(=O)(OCC(C)C)OCC(C)C	5
CCCCC(O)CCO (stereo not given)	5
CC1CCC(C(C)C)C(OCC(O)CO)C1 (stereo not given)	5
CCCc1nc(C)n2[nH]c(=O)nc2c1Cc1ccc(-c2ccccc2-c2nn[nH]n2)cc1	4
CCOC(=O)c1cnn(-c2ccccc2)c1N	4
CC[N+](CC)(CC)C(C)OS(=O)(=O)C(F)(F)C(F)(F)C(F)(F)C(F)(F)F (stereo not given)	5
CCCCC(CC)COC(=O)c1ccccc1O (stereo not given)	5
CN1CCN(CC(=O)N2c3ccccc3C(=O)Nc3cccnc32)CC1	5
CCCC(=O)OC(C)(C)Cc1ccccc1	5
CN1CCN(c2c(F)cc3c(=O)c(C(=O)O)cn(CCF)c3c2F)CC1	5
O=C(O)c1ccc(B(O)O)cc1	5
C=CCOc1c(Br)cc(C(C)(C)c2cc(Br)c(OCC=C)c(Br)c2)cc1Br	5
Cc1ccc(S(=O)(=O)NC(=O)NC(=O)C(Cl)(Cl)Cl)cc1	5
CC(=O)CCCC(C)CCC=C(C)C (stereo not given)	5
COc1ccc2cc([C@H](C)C(=O)OCCN3CCN(CCOC(=O)[C@@H](C)c4ccc5cc(OC)ccc5c4)CC3)ccc2c1	5
CSCC[C@H](NC(=O)CCSC(=O)c1ccccc1)C(=O)O	5
COc1cccc(OC)c1C(=O)O	4
OC[C@@H](O)[C@@H](O[C@@H]1O[C@H](CO)[C@H](O)[C@H](O)[C@H]1O)[C@H](O)[C@@H](O)CO	5
COC[C@@H]1CO[C@@](Cn2ccnc2)(c2cc3cc(Cl)cc(Cl)c3o2)O1	4
COCCOCOCCOC	5
CC(C)COC(=O)Cc1ccccc1	5
CSC(=O)c1c(C(F)F)nc(C(F)(F)F)c(C(=O)SC)c1CC(C)C	5

SMILES	GHS category
CC=CCC1=C(C)CCC1	5
CCO[Si](CC(C)CC(C)(C)C)(OCC)OCC (stereo not given)	5
COC(=O)COc1nc(F)c(Cl)c(N)c1Cl	5
CC(C)(CO)C1OCC2(CO1)COC(C(C)(C)CO)OC2 (stereo not given)	5
CC(C)C1OCCN1CCOC(=O)NCCCCCCNC(=O)OCCN1CCOC1C(C)C (stereo not given)	5
C/C1=C\[C@@H](C)C/C=C/[C@H]2[C@@H]3O[C@]3(C)[C@@H](C)[C@H]3[C@H](Cc4c[nH]c5ccccc45)NC(=O)[C@]32C(=O)/C=C/C(=O)[C@@H]1O	4
COc1cc(OC)nc(N=C(O)NS(=O)(=O)N(C)S(C)(=O)=O)n1	5
CC(SC(=O)c1cccs1)C(=O)NC1CCSC1=O (stereo not given)	5
CN(C)c1ccc(NC(=O)CCCSc2nnnn2C)cc1	4
COc1nc(C)nc(NC(=O)NS(=O)(=O)c2ccccc2OCCCl)n1	5
Nc1nc(-c2ccc3ccccc3c2)cs1	5
CNC(=O)Nc1ccc(Cl)c(Cl)c1	4
Fc1ccc(Oc2ccnc3cc(Cl)cc(Cl)c23)cc1	5
Cc1ccc(Nc2nc(Nc3ccc(C)cc3)c(N=Nc3ccccc3C(F)(F)F)c(C)c2C#N)cc1	5
CN1COCN=C1N[N+](=O)[O-]	4
CNC(=O)/C(=N/OC)c1ccccc1COc1cc(C)ccc1C	5
CCCCCCCCCCCCCCCC(=O)OC[C@H](O)[C@H]1OC(=O)C(O)=C1O	5
N#CNC(=N)NCCCCCCNC(=N)NC#N	5
COC(=O)CBr	3
O=C1OCCC1O (stereo not given)	5
COc1ccccc1C1NC(=O)CCS1 (stereo not given)	5
CCCCCCCCCC=CC=O	5

SMILES	GHS category
C#CCC(O[Si](CC)(CC)CC)[Si](CC)(CC)CC (stereo not given)	5
CC(C)(CCn1c(=O)[nH]c2ccccc21)NCC(O)COc1cccc2ccccc12 (stereo not given)	5
NS(=O)(=O)c1cc2c(cc1Cl)NC(C1CC3C=CC1C3)NS2(=O)=O (stereo not given)	5
O=C(CSCCO)NCCCOc1cccc(CN2CCCCC2)c1	5
C[SiH]1O[SiH](C)O[SiH](C)O[SiH](C)O[SiH](C)O1 (stereo not given)	5
CNC(=O)C(C#N)=c1[nH]c(=C2C(=O)NC(=O)NC2=O)c2ccccc12	5
O=c1nc2nc[nH]n2c(CO)c1Cc1ccc(-c2ccccc2-c2nn[nH]n2)cc1	4
CC(C)c1cc(C(C)C)c([N+](=O)[O-])c(C(C)C)c1[N+](=O)[O-]	5
NC(=O)Oc1ccccc1C(=O)Oc1ccccc1[N+](=O)[O-]	5
O=C(O)c1cc(=O)c2c(OCC(O)COc3cccc4oc(C(=O)O)cc(=O)c34)cccc2o1	5
CCOC(=O)C1=C(C)NC(CCl)=C(C(=O)OCC)C1c1cccc([N+](=O)[O-])c1 (stereo not given)	4
O=C(OCCCc1ccccc1)c1ccccc1	5
N#CC(C(=O)OCC(COC(=O)C(C#N)=C(c1ccccc1)c1ccccc1)(COC(=O)C(C#N)=C(c1ccccc1)c1ccccc1)COC(=O)C(C#N)=C(c1ccccc1)c1ccccc1)=C(c1ccccc1)c1ccccc1	5
Cc1ccc(NC(=O)N(C)C)cc1NC(=O)N(C)C	5
O=C(Cl)CCCCCl	4
Cc1cccc2ncc(C(=O)NC3CC3)c(=O)n12	3
C=C(C)c1cccc(C(=C)C)c1	5
CN1C[C@H](c2ccnn2C)CC2c3cccc4[nH]cc(c34)C[C@H]21 (stereo not given in full)	4
CN1C(=O)COc2cc(C(=O)c3ccc(Cl)cc3)ccc21	5
C=C(CC)CCCC(C)(C)OC(C)=O	5
COc1ccc2c(c1)CCN(c1ccccc1)C2c1ccccc1N (stereo not given)	4
C=CC(C)(CCC=C(C)C)OC(=O)c1ccccc1 (stereo not given)	5

SMILES	GHS category
CC(=O)OCC(=O)[C@@]12OC3(CCCC3)O[C@@H]1C[C@H]1[C@@H]3CCC4=CC(=O)C=C[C@]4(C)[C@@]3(F)[C@@H](O)C[C@@]12C	5
CCOC[C@@H]1CO[C@@](Cn2ccnc2)(c2cc3cc(Cl)cc(Cl)c3o2)O1	4
CC(C)COC(=O)CC(C)C	5
CCCCCC(=O)OC1(C(C)=O)CCC2C3CCC4=CC(=O)CCC4C3CCC21C (stereo not given)	5
O=[N+]([O-])c1ccc(C=NOCc2cccc([N+](=O)[O-])c2)cc1	4
O=C(c1ccccc1)c1ccc2[nH]c(=O)oc2c1	5
CCCOC(=O)[C@H](C)O	5
CC(=CC1C(C)=CCCC1(C)C)C(C)O (stereo not given)	5
Nc1ncnc2c1ncn2[C@@H]1O[C@H](CO)[C@@H](O)[C@@H]1O	5
O=C(O)CN1C(=O)c2cccc3cccc(c23)C1=O	5
C=CCSc1nc2ccc(Cc3ccccc3)cc2[nH]1	5
CCCCCCCCCCCCCCCCOC(=O)C(CC)CCCC (stereo not given)	5
COc1cc(OC)nc(NC(=O)NS(=O)(=O)c2ncccc2C(F)(F)F)n1	5
CC(C)(Oc1ccc(Cl)cc1)C(=O)OC(COC(=O)c1cccnc1)COC(=O)c1cccnc1	5
COC(=O)c1nc(Cl)c(Cl)nc1N	5
COc1ccc(N)cc1N	5
Oc1cc(O)c2c(c1)O[C@H](c1ccc(O)c(O)c1)[C@@H](O)C2	5
CCCCCCCCC=O	5
CNc1ccc(C(=O)c2ccccc2)cc1O	5

— the CATMoS acute toxicity set (Mansouri et al. 2021)
